PMC5618690, “Structural and functional analysis of two small leucine-rich repeat proteoglycans, fibromodulin and chondroadherin” (Matrix Biology, 2017)

What was measured:
[1] = target: T1, chondroadherin (Homo sapiens, UniProt O15335); test: Binding of peptide AB31 to chondroadherin in solution by size exclusion chromatography
T1 construct: The construct comprises residues 23–359 of Uniprot O15335 and is untagged; made in house; host or cells: HEK293 c18 cells
T1 sequence (O15335 23-359): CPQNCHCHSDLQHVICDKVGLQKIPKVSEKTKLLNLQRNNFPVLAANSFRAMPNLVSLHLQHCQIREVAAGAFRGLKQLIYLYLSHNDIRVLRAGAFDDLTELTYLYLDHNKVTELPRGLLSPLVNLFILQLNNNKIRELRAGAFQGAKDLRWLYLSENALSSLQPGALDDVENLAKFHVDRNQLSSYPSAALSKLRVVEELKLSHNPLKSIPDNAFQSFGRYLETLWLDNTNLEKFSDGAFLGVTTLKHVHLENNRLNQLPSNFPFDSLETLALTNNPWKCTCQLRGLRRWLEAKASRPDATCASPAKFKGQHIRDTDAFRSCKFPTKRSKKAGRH
Experimental: The natural affinity of chondroadherin for Ni^2 + affinity resin was used to purify the untagged protein. The filtered serum-free cell culture supernatant was adjusted to a final concentration of 20 mM Na-HEPES (pH 7.5) and loaded onto a 5-ml HisTrap Excel column using an Äkta Purifier. Elution was performed with an imidazole gradient in buffer A. The chondroadherin protein was further purified by size exclusion chromatography as described for fibromodulin. Chondroadherin and the collagen-like peptide AB31 were mixed in a 1:2 molar ratio and incubated for 15 min at room temperature. The chondroadherin-AB31 complex was purified by size exclusion chromatography in buffer A.

[2] = ref [26], cited from earlier work
Text: Fig. 3 Concave face interactions in SLRP crystal structures. For each structure, two orthogonal views are shown. […] The experimentally determined mass of fibromodulin was 56.7 kDa (calculated: 41.5 kDa + 4 N-linked glycans) and that of chondroadherin was 39.6 kDa (calculated: 38.6 kDa). In comparison, using the same SEC-MALS setup, we previously determined an experimental mass of 83.5 kDa for the glycosylated decorin core protein (calculated: 36.2 kDa + 4 N-linked glycans).

[3] = target: decorin dimer; conditions: ref [26]; read-out: dissociation constant of decorin dimer; cited from earlier work
Text: We used size exclusion chromatography with multi-angle light scattering (SEC-MALS) to determine the oligomeric states of fibromodulin and chondroadherin in solution (Fig. 4). The experimentally determined mass of fibromodulin was 56.7 kDa (calculated: 41.5 kDa + 4 N-linked glycans) and that of chondroadherin was 39.6 kDa (calculated: 38.6 kDa). In comparison, using the same SEC-MALS setup, we previously determined an experimental mass of 83.5 kDa for the glycosylated decorin core protein (calculated: 36.2 kDa + 4 N-linked glycans).

| Substance | complex formation with chondroadherin in solution ([1]; SEC, Superdex 75, AB31:chondroadherin 2:1 molar ratio, 15 min, room temperature, buffer A (20 mM HEPES pH 7.5, 150 mM NaCl, 2 mM CaCl2)) | binding site quality of shared sequence ([1]; sequence shared by II-26 and AB31) | oligomeric state in solution (literature) ([2]; not SEC-MALS of this work, [32], [33]) | experimental mass of glycosylated decorin core protein ([2]; same SEC-MALS setup, previously determined) | Kd [3] |
| --- | --- | --- | --- | --- | --- |
| GAOGPSGFQGLOGPOGPO | forms a stable complex with chondroadherin in solution | high-affinity binding site for chondroadherin |  |  |  |
| decorin |  |  | form stable dimers in solution | 83.5 kDa | 1400 nM |
